From paper PMC10367051, “Comprehensive Mechanistic View of the Hydrolysis of Oxadiazole-Based Inhibitors by Histone Deacetylase 6 (HDAC6)” (ACS Chemical Biology, 2023)

Legend:
Type in all cases: biochemical
[1] = biological target: T1, HDAC1 (Homo sapiens, UniProt Q13547); experiment: Fluorometric HDAC inhibition assay, HDAC1; settings: purified human protein; Ac-Gly-Ala-[Lys-Ac]-AMC substrate 10 μM; 15 min preincubation
T1 construct: made in house; host or cells: HEK293/T17
Procedure: (§1) Large-scale expression of recombinant human HDACs was carried out as described previously.[32],[37] Briefly, HEK293/T17 cells were transiently transfected with expression pMM222 plasmids comprising N-terminally tagged (TwinStrep-FLAG-HALO tag; Figure S1) HDAC genes using linear poly(ethyleneimine) (PEI, Polysciences Inc.). Cells were harvested three days post-transfection, and cell pellets were resuspended in the lysis buffer (100 mM Tris-HCl, 10 mM NaCl, 5 mM KCl, 2 mM MgCl2, and 10% glycerol at pH 8.0). Cells were disrupted by sonication, cell lysates were cleared by centrifugation, and soluble fusion proteins were first purified by Streptactin affinity chromatography (IBA). For all HDACs but HDACs 1, 10, and 11, the N-terminal tag was cleaved off overnight by the addition of TEV protease (10:1 HDAC/TEV ratio). Size-exclusion chromatography on a Superose 6 column (GE Healthcare Bio-Sciences; running buffer 30 mM HEPES, 140 mM NaCl, 10 mM KCl, 3% glycerol, and 0.25 mM TCEP) was used as the final purification step for all HDAC constructs.
(§2) Optimized fluorometric assays were used to determine inhibition constants of studied compounds against individual HDAC isoforms as described previously.[32] Briefly, reactions were performed in the activity buffer comprising 50 mM HEPES, 140 mM NaCl, and 10 mM KCl at pH 7.4 supplemented with 1 mg mL^–1 bovine serum albumin (BSA), 1 mM tris(2-carboxyethyl)phosphine (TCEP), 10 μM substrates, and optimized concentrations of HDACs. The Ac-Gly-Ala-[Lys-Ac]-7-amino-methylcoumarylamide (AMC) substrate was used to profile HDACs 1, 2, 3, and 6; Boc-[Lys-TFA]-7-amino-methylcoumarylamide was used for HDACs 4, 5, 7, 8, and 9 (both substrates: Bachem); fluorescein-labeled N8-acetylspermidine was used for HDAC10;[32] and an internally quenched TNFα-derived peptide derivative was used for HDAC11.[39] Deacetylation reactions were monitored either by high-performance liquid chromatography (HPLC) (HDAC10) or by quantification of released AMC (λex/λem = 365/440 nm) using a CLARIOstar plate reader (BMG Labtech GmbH).

[2] = biological target: T2, HDAC2 (Homo sapiens, UniProt Q92769); experiment: Fluorometric HDAC inhibition assay, HDAC2; settings: purified human protein; Ac-Gly-Ala-[Lys-Ac]-AMC substrate 10 μM; 15 min preincubation
T2 construct: TwinStrep-FLAG-HALO (N, cleaved yes); made in house; host or cells: HEK293/T17
Procedure: as §1, §2

[3] = biological target: T3, HDAC3 (Homo sapiens, UniProt O15379); experiment: Fluorometric HDAC inhibition assay, HDAC3; settings: purified human protein; Ac-Gly-Ala-[Lys-Ac]-AMC substrate 10 μM; 15 min preincubation
T3 construct: TwinStrep-FLAG-HALO (N, cleaved yes); made in house; host or cells: HEK293/T17
Procedure: as §1, §2

[4] = biological target: T4, HDAC4 (Homo sapiens, UniProt P56524); experiment: Fluorometric HDAC inhibition assay, HDAC4; settings: purified human protein; Boc-[Lys-TFA]-AMC substrate 10 μM; 15 min preincubation
T4 construct: TwinStrep-FLAG-HALO (N, cleaved yes); made in house; host or cells: HEK293/T17
Procedure: as §1, §2

[5] = biological target: T5, HDAC8 (Homo sapiens, UniProt Q9BY41); experiment: Fluorometric HDAC inhibition assay, HDAC8; settings: purified human protein; Boc-[Lys-TFA]-AMC substrate 10 μM; 15 min preincubation
T5 construct: TwinStrep-FLAG-HALO (N, cleaved yes); made in house; host or cells: HEK293/T17
T5 sequence (Q9BY41 1-377): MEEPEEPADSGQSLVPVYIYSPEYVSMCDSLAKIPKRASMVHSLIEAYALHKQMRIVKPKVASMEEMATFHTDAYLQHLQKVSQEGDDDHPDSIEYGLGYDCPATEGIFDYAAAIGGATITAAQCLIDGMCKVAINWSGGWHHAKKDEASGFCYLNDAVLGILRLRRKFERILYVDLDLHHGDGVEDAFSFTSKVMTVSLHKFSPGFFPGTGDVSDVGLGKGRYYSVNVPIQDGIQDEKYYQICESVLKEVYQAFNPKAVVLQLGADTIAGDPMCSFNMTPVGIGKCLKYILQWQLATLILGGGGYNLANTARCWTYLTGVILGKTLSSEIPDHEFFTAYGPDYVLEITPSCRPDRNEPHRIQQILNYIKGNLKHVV
Procedure: as §1, §2

[6] = biological target: T6, zHDAC6 (Y745F) (Danio rerio, UniProt F8W4B7, Y745F); experiment: Inhibition assay, zebrafish HDAC6 catalytic DD2 domain, Y745F mutant
T6 construct: Danio rerio HDAC6 (amino acids 440–798; zHDAC6); His (N, cleaved yes); MBP (N, cleaved yes); made in house; host or cells: RIPL Escherichia coli
T6 sequence (F8W4B7 440-798 Y745F): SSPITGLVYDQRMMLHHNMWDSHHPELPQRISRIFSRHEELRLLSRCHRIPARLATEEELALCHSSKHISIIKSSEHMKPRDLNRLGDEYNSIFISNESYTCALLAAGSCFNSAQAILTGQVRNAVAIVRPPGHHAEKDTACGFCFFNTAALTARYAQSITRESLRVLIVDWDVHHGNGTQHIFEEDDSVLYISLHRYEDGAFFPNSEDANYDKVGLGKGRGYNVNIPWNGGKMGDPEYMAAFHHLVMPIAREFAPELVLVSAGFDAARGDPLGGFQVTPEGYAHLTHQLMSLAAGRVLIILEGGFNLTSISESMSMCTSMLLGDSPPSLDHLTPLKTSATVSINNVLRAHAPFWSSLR
Procedure: The second catalytic domain of Danio rerio HDAC6 (amino acids 440–798; zHDAC6) was expressed in RIPL Escherichia coli as described previously using the pEC566-zHDAC6 expression vector.[16],[38] Briefly, bacteria were incubated at 37 °C with shaking (250 rpm) until the optical density reached an OD600 = 0.5. Then, the culture was cooled to 18 °C for 1 h, and recombinant protein expression was induced by the addition of 75 μM isopropyl β-D-1-thiogalactopyranoside together with 200 μM ZnSO4. The culture was grown at 18 °C for an additional 18 h and harvested by centrifugation at 5500g for 15 min. The cell pellet was resuspended in the lysis buffer (50 mM phosphate, 300 mM NaCl, 10% glycerol, and 20 mM imidazole at pH 8; 5 mL g^–1 bacterial pellet) and lysed by three passages through EmulsiFlex (Avestin). Cell lysates were centrifuged (15,000g at 4 °C for 20 min), and the fusion protein in the supernatant was purified via Ni-NTA chromatography. Fractions containing the His-MBP-HDAC6 fusion were concentrated to 2 mg mL^–1 and cleaved overnight by the addition of TEV protease (zHDAC6/TEV 1:20 ratio). The cleaved tag and the TEV protease were sequentially removed using amylose (New England Biolabs) and HisTrap columns (Cytiva), and zHDAC6 was further purified by size-exclusion chromatography on a HiLoad Superdex 75 pg column (GE Healthcare Bio-Sciences). Fractions containing zHDAC6 were pooled, concentrated to 10 mg mL^–1, flash-frozen in liquid nitrogen, and stored at −80 °C. The purity of protein preparations was monitored by SDS-PAGE (Figure S2).
The zHDAC6 mutants (Y745F and H574A) were constructed using the Quick-change site-directed mutagenesis protocol with the pEC566-zHDAC6 expression plasmid as a template. Both mutants were expressed and purified as described above for wild-type zHDAC6 (Figure S2).
as §2

T1 sequence (Q13547 whole entry): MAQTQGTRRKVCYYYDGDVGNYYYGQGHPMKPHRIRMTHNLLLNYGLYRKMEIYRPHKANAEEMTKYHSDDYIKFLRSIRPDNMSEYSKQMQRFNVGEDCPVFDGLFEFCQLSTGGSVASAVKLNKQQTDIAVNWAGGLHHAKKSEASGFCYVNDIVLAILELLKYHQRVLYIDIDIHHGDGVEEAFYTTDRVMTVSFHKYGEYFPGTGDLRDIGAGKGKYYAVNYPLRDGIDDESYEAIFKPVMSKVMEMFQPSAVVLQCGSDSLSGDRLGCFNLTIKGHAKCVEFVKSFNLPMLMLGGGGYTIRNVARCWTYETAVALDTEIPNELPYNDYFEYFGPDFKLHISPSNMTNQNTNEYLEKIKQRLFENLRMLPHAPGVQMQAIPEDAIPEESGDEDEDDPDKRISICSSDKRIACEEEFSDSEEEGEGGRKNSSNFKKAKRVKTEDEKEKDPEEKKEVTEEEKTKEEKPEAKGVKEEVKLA
T4 sequence (P56524 whole entry): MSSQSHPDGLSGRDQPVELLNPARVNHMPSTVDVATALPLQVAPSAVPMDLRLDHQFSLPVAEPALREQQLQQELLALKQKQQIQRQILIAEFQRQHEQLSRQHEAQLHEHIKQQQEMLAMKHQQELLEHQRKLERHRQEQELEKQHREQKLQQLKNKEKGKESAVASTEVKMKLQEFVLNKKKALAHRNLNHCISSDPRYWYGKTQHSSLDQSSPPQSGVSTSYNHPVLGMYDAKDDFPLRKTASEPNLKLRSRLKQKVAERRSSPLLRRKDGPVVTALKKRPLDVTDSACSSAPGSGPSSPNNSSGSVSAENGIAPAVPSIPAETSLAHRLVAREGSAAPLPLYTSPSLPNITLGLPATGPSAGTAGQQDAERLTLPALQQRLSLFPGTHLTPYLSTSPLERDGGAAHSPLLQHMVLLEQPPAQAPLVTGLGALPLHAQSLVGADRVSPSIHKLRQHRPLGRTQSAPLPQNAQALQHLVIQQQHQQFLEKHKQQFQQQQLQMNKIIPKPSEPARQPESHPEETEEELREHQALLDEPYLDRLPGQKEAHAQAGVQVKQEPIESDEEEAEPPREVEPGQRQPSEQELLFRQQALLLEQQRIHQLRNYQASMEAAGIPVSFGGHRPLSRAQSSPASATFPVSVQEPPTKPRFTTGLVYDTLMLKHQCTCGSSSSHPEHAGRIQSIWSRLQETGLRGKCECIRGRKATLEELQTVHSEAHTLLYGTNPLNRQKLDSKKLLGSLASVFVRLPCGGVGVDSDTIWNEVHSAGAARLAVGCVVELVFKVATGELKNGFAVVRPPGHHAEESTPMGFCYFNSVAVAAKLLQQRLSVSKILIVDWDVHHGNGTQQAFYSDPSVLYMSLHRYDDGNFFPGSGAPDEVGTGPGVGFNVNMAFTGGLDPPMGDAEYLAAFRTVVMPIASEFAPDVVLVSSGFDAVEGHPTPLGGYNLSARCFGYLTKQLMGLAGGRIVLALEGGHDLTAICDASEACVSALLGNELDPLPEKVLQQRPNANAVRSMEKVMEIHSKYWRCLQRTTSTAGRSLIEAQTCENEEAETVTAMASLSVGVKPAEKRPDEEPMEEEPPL
T2 sequence (Q92769 whole entry): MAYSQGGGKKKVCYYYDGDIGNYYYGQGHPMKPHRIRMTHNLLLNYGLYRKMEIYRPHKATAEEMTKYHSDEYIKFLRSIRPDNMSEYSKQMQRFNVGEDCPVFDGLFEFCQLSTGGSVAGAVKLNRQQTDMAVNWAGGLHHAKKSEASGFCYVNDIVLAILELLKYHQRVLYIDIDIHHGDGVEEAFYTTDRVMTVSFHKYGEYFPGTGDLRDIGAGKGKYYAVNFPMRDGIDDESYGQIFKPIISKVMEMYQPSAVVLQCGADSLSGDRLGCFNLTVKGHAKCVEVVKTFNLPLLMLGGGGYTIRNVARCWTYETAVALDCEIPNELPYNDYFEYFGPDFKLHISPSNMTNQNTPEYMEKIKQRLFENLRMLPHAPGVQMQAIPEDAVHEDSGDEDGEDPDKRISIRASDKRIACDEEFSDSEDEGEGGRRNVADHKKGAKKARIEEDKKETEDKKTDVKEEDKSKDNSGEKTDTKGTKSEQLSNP
T3 sequence (O15379 whole entry): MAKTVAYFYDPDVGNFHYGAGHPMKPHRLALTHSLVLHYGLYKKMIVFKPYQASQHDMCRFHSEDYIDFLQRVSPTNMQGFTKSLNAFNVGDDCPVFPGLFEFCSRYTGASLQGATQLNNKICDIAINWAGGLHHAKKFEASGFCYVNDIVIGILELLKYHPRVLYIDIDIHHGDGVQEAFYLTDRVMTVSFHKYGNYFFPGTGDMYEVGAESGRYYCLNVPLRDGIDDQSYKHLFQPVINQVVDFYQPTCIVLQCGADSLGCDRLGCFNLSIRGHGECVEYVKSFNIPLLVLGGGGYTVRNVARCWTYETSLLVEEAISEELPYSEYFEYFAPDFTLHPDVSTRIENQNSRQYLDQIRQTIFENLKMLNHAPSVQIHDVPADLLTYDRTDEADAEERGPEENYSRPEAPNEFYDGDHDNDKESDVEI
T3 sequence (Q9Y618 389-480 partner limits assumed): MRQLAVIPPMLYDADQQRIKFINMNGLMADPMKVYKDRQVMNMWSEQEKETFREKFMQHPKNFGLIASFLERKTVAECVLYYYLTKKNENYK

Compound	IC50 [1]	IC50 [2]	IC50 [3]	IC50 [4]	IC50 [5]	IC50 [6]
CS(=O)(=O)N(Cc1ccc(C(=O)NN)cn1)c1cccc(Cl)c1 [compound 4]	> 20 µM	> 20 µM	> 20 µM	> 20 µM	> 20 µM	> 50 µM
CS(=O)(=O)N(Cc1ccc(C(=O)NNC(=O)C(F)(F)F)cn1)c1cccc(Cl)c1 [compound 5]	9.17 µM	> 20 µM		> 20 µM	> 20 µM	> 20 µM
CS(=O)(=O)N(Cc1ccc(-c2nnc(C(F)F)o2)cn1)c1cccc(Cl)c1 [compound 8]	> 20 µM	> 20 µM	> 20 µM	> 20 µM	> 20 µM	0.075 ± 0.026 µM

The remaining lines, values ahead:

IC50 [1]	IC50 [2]	IC50 [3]	IC50 [4]	IC50 [5]	IC50 [6]	Compound
> 20 µM			> 20 µM	> 20 µM	> 50 µM	CS(=O)(=O)N(Cc1ccc(C(=O)NNC(=O)C(F)F)cn1)c1cccc(Cl)c1 [compound 6]
> 20 µM	17.4 µM	> 20 µM	> 20 µM	> 20 µM	0.311 ± 0.15 µM	CS(=O)(=O)N(Cc1ccc(-c2nnc(C(F)(F)F)o2)cn1)c1cccc(Cl)c1 [compound 7]
